13 molecules from PubChem BioAssay (NCI) can be followed below.

Among the test systems are KM12 colon; HCT-15 colon; K-562 leukemia; ACHN renal; HL-60(TB) leukemia; MDA-MB-231 breast; TK-10 renal; SK-OV-3 ovarian; NCI-H226 lung; SK-MEL-5 melanoma.
Test in all cases: inhibition of tumour cell growth, NCI panel, 48 h

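Dose response: 5 concentrations. Exposure: 48 h. Format: 96-well plates. Endpoint: linear interpolation; highest concentration if not reached. Abbreviation: GI50, concentration required for 50% inhibition of growth. TGI is the concentration that stops growth completely.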

With `O=C1c2ccccc2-c2[nH]c3cn[nH]c(=O)c3c21`, the TGI in the assay on KM12 colon, in the assay on HCT-15 colon, with K-562 leukemia, in the assay on ACHN renal, with HL-60(TB) leukemia and in the assay on MDA-MB-231 breast was greater than 100 µM each time. The TGI in the assay on TK-10 renal, in the assay with SK-OV-3 ovarian, in the assay on NCI-H226 lung and with SK-MEL-5 melanoma was greater than 100 µM in each case.

`CCOC(=O)c1cnccc1CC1(C#N)c2ccccc2C=CN1C(=O)c1ccccc1` (stereo not given): the TGI in the assay with KM12 colon was 31.3 µM; with HCT-15 colon, greater than 100 µM; in the assay on K-562 leukemia, 49.6 µM; in the assay on ACHN renal, greater than 100 µM; in the assay with HL-60(TB) leukemia it was greater than 100 µM; in the assay with MDA-MB-231 breast it was greater than 100 µM. The TGI in the assay with TK-10 renal was greater than 100 µM; with SK-OV-3 ovarian, greater than 100 µM; in the assay with NCI-H226 lung it was greater than 100 µM; with SK-MEL-5 melanoma, 37.8 µM.

With `C=C1C(=O)O[C@H]2[C@H]3O[C@@H](C[C@@H]12)[C@](C)(O)CC[C@@H]1O[C@@]1(C)CCC[C@H]3C`, the TGI in the assay with KM12 colon was 57.3 µM; in the assay on HCT-15 colon it was 37.9 µM; in the assay with K-562 leukemia it was greater than 100 µM; in the assay with ACHN renal, 31.4 µM; in the assay on HL-60(TB) leukemia, greater than 100 µM; in the assay on MDA-MB-231 breast it was 65.8 µM. Moreover, the TGI was 32.6 µM in the assay on TK-10 renal, greater than 100 µM in the assay on SK-OV-3 ovarian, 60 µM with NCI-H226 lung and 33.5 µM in the assay on SK-MEL-5 melanoma.

`O=C1c2ccccc2C(=O)N1c1nc(-c2ccc(Cl)cc2)cc(N2N=C(c3ccc(Br)cc3)CC2c2ccccc2)n1` (stereo not given): the TGI in the assay on KM12 colon is greater than 63.9 µM; with HCT-15 colon, 7.14 µM; in the assay with K-562 leukemia, greater than 100 µM; with ACHN renal, greater than 21.7 µM; with HL-60(TB) leukemia it was greater than 100 µM; in the assay with MDA-MB-231 breast, 23.3 µM. The TGI is greater than 49 µM with TK-10 renal, greater than 46.1 µM in the assay with SK-OV-3 ovarian, 29.8 µM with NCI-H226 lung and 5.02 µM in the assay on SK-MEL-5 melanoma.

`COC(=O)C1=C(O)C(C(=O)OC)[C@]2(O)[C@H](C(=O)OC)[C@H]1C[C@@H](c1ccc([N+](=O)[O-])cc1)[C@H]2C(=O)OC` (stereo not given in full): the TGI is greater than 100 µM in the assay with KM12 colon; 38.6 µM in the assay with HCT-15 colon; greater than 100 µM in the assay with K-562 leukemia; 32.9 µM in the assay on ACHN renal; 45.8 µM in the assay on HL-60(TB) leukemia; 83.9 µM with MDA-MB-231 breast. The TGI is greater than 100 µM in the assay on TK-10 renal, greater than 100 µM with SK-OV-3 ovarian, 65.1 µM with NCI-H226 lung and 30 µM with SK-MEL-5 melanoma.

On to `Cc1ccc(S(=O)(=O)N(CC(O)COc2ccccc2)c2ccc(F)cc2F)cc1` (stereo not given), for which the TGI in the assay with KM12 colon is 68.1 µM; in the assay on HCT-15 colon it was 30.8 µM; in the assay with K-562 leukemia it was greater than 100 µM; with ACHN renal, 30.6 µM; in the assay with HL-60(TB) leukemia, 57.6 µM; with MDA-MB-231 breast, 39 µM. For the same molecule, the TGI amounted to 45.9 µM in the assay with TK-10 renal, 41.6 µM in the assay with SK-OV-3 ovarian, 41.9 µM in the assay with NCI-H226 lung and 27.8 µM in the assay on SK-MEL-5 melanoma.

Consider `CN(C)C(=S)Oc1ccc2ccc(=O)oc2c1`, for which the TGI in the assay with KM12 colon, with HCT-15 colon, with ACHN renal, in the assay with HL-60(TB) leukemia, in the assay with MDA-MB-231 breast and in the assay with TK-10 renal was greater than 100 µM each time. Also, the TGI in the assay on SK-OV-3 ovarian, with NCI-H226 lung and in the assay with SK-MEL-5 melanoma was greater than 100 µM each time.

As for `O=[N+]([O-])c1cccnc1-n1cnc2ccccc21`, the TGI in the assay with KM12 colon, in the assay with HCT-15 colon, in the assay with K-562 leukemia, with HL-60(TB) leukemia, in the assay on MDA-MB-231 breast and in the assay on TK-10 renal was greater than 100 µM throughout. Also, the TGI in the assay on SK-OV-3 ovarian, with NCI-H226 lung and with SK-MEL-5 melanoma was greater than 100 µM throughout.

Take `Cc1ccc(-c2n[nH]c(=O)n2/N=C\c2ccccc2)cc1`: the TGI in the assay on KM12 colon, in the assay on HCT-15 colon, with K-562 leukemia, in the assay with ACHN renal, in the assay on HL-60(TB) leukemia and in the assay with MDA-MB-231 breast was greater than 100 µM in each case. Further, the TGI with TK-10 renal, in the assay with NCI-H226 lung and in the assay with SK-MEL-5 melanoma was greater than 100 µM in each case.

As to `CC1OC2OC3C(OCC(O)C3O)OC(=O)[C@]34CCC(C)(C)CC3C3=CCC5[C@@]6(C)C[C@H](O)[C@H](OC7OC(CO)C(O)C(O)C7OC7OCC(OC(=O)CC(C)(O)CC(=O)OC1C(OC1OC(CO)C(O)C(O)C1O)C2O)C(O)C7O)[C@@](C)(CO)C6CC[C@@]5(C)[C@]3(C)CC4` (stereo not given in full), the TGI came to 19.3 µM in the assay on KM12 colon; 22.5 µM with HCT-15 colon; 17.9 µM in the assay with ACHN renal; 6.29 µM in the assay on HL-60(TB) leukemia; 21.1 µM in the assay with MDA-MB-231 breast; 21.1 µM in the assay on TK-10 renal. In addition, the results for the TGI with SK-OV-3 ovarian, with NCI-H226 lung and with SK-MEL-5 melanoma were 22.8 µM, 34 µM and 28.8 µM, respectively.

On to `COc1ccccc1CNCCCCCCCCCCCCN1C(=O)c2ccc3c4c(ccc(c24)C1=O)C(=O)N(CCCCCCCCCCCCNCc1ccccc1OC)C3=O`, for which the GI50 in the assay on HCT-15 colon is greater than 50 µM; in the assay on ACHN renal it was greater than 50 µM; with HL-60(TB) leukemia, greater than 50 µM; with MDA-MB-231 breast, greater than 50 µM; in the assay with TK-10 renal it was 0.795 µM; in the assay with SK-OV-3 ovarian, greater than 50 µM. The GI50 with NCI-H226 lung was greater than 50 µM; in the assay with SK-MEL-5 melanoma it was 48.9 µM. Further, the TGI in the assay with HCT-15 colon was greater than 50 µM; in the assay on ACHN renal, greater than 50 µM; in the assay on HL-60(TB) leukemia, greater than 50 µM; in the assay with MDA-MB-231 breast, greater than 50 µM; with TK-10 renal, 1.47 µM; in the assay with SK-OV-3 ovarian it was greater than 50 µM. Besides, the TGI in the assay with NCI-H226 lung and with SK-MEL-5 melanoma was greater than 50 µM throughout.

As for `COC1(OC)c2no[n+]([O-])c2C(OC)(OC)c2c1no[n+]2[O-]`, the TGI in the assay with KM12 colon was 24.2 µM; in the assay on HCT-15 colon it was 67.4 µM; in the assay on K-562 leukemia, greater than 100 µM; in the assay with ACHN renal, 68.5 µM; in the assay on HL-60(TB) leukemia, 87.6 µM; in the assay on MDA-MB-231 breast, 32.9 µM. The TGI in the assay on TK-10 renal came to 31.5 µM; with NCI-H226 lung, 64 µM; with SK-MEL-5 melanoma, 28.6 µM.

Regarding `CC(C)(C)C1CC[C@H](O)[C@H]([C@H](O)CC2CC(=O)N(c3ccccc3)C(=O)C2)C1` (stereo not given in full), the TGI with KM12 colon, with HCT-15 colon, with K-562 leukemia, in the assay on ACHN renal, in the assay on HL-60(TB) leukemia and with MDA-MB-231 breast was greater than 100 µM in each case. For the same molecule, the TGI in the assay with TK-10 renal, in the assay with NCI-H226 lung and in the assay on SK-MEL-5 melanoma was greater than 100 µM each time.
